# Data: patent US6737383B1, “Herbicidal oxadiazolidines” (priority 1999, dated 2004)
# Key:
# [1] = system: smallflower flatsedge; test: Test B flood test smallflower flatsedge; assay type: in vivo, Cyperus difformis
# In short: (§1)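 Read-out is a visual response score from 0 (no effect) to 10 (complete control), assigned by comparison with untreated controls. Treatment was applied at the 2-leaf stage, and plants stayed in the greenhouse for twelve to sixteen days before scoring.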
# [2] = system: rape; test: Test B pre/postemergence rape; assay type: in vivo, Brassica napus; settings: for Plant response rating, Rape: scale of 0 to 10 where 0 is no effect and 10 is complete control
# In short: (§2)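 Herbicidal effect was estimated by eye on a ten-point control scale after plants spent twelve to sixteen days in a greenhouse following soil or foliar treatment. Foliar sprays targeted plants at one to four leaves; all doses were formulated in a non-phytotoxic solvent with surfactant.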
# [3] = system: crabgrass; test: Test B pre/postemergence crabgrass; assay type: in vivo, Digitaria sanguinalis
# In short: as §2
# [4] = system: sugar beet; test: Test B pre/postemergence sugar beet; assay type: in vivo, Beta vulgaris; settings: for Plant response rating, Sugarbeets: scale of 0 to 10 where 0 is no effect and 10 is complete control
# In short: as §2
# [5] = system: giant foxtail; test: Test B pre/postemergence giant foxtail; assay type: in vivo, Setaria faberii
# In short: as §2
# [6] = system: soybean; test: Test B pre/postemergence soybean; assay type: in vivo, Glycine max; settings: for Plant response rating, Soybean: scale of 0 to 10 where 0 is no effect and 10 is complete control
# In short: as §2
# [7] = system: wheat; test: Test B pre/postemergence wheat; assay type: in vivo, Triticum aestivum; settings: for Plant response rating, Wheat: scale of 0 to 10 where 0 is no effect and 10 is complete control
# In short: as §2
# [8] = system: morningglory; test: Test B pre/postemergence morningglory; assay type: in vivo, Ipomoea hederacea; settings: for Plant response rating, Morningglory: scale of 0 to 10 where 0 is no effect and 10 is complete control
# In short: as §2
# [9] = system: purple nutsedge; test: Test B pre/postemergence purple nutsedge; assay type: in vivo, Cyperus rotundus
# In short: as §2
# [10] = system: wild oat; test: Test B pre/postemergence wild oat; assay type: in vivo, Avena fatua; settings: for Plant response rating, Wild oats: scale of 0 to 10 where 0 is no effect and 10 is complete control
# In short: as §2
# [11] = system: surinam grass; test: Test B pre/postemergence surinam grass; assay type: in vivo, Brachiaria decumbens
# In short: as §2
# [12] = system: duck salad; test: Test B flood test duck salad; assay type: in vivo, Heteranthera limosa
# In short: as §1
# [13] = system: cocklebur; test: Test B pre/postemergence cocklebur; assay type: in vivo, Xanthium strumarium
# In short: as §2
# [14] = system: corn; test: Test B pre/postemergence corn; assay type: in vivo, Zea mays
# In short: as §2
# [15] = system: velvetleaf; test: Test B pre/postemergence velvetleaf; assay type: in vivo, Abutilon theophrasti; settings: for Plant response rating, Velvetleaf: scale of 0 to 10 where 0 is no effect and 10 is complete control
# In short: as §2
# [16] = system: blackgrass; test: Test B pre/postemergence blackgrass; assay type: in vivo, Alopecurus myosuroides
# In short: as §2
# [17] = Rate 62 g/ha, flood test species, Pre-emergence, visual evaluation after twelve to sixteen days
# [18] = Rate 125 g/ha, under heading Pre-emergence, flood test species, visual evaluation after twelve to sixteen days
# [19] = Rate 250 g/ha, Pre-emergence (flood test species), scale 0 to 10, 0 is no effect, 10 is complete control
# [20] = Rate 500 g/ha, Pre-emergence, flood test species, scale 0 to 10 (0 no effect, 10 complete control)
# [21] = Postemergence, Rate 250 g/ha, scale 0 to 10
# [22] = Preemergence, Rate 250 g/ha, scale 0 to 10, 0 is no effect, 10 is complete control
# [23] = Preemergence, Rate 500 g/ha, scale 0 to 10, 0 is no effect, 10 is complete control
# [24] = Rate 62 g/ha, Postemergence, scale 0 to 10, 0 no effect, 10 complete control
# [25] = Rate 125 g/ha, Postemergence, scale 0 to 10, 0 is no effect, 10 is complete control
# [26] = Postemergence, Rate 500 g/ha, scale of 0 to 10 where 0 is no effect and 10 is complete control
# [27] = Preemergence, Rate 62 g/ha, scale of 0 to 10 where 0 is no effect and 10 is complete control
# [28] = Preemergence, Rate 125 g/ha, scale of 0 to 10 where 0 is no effect and 10 is complete control
smiles,measurement,setting,value
CCC=CCn1c(=O)on(C(=O)N(c2ccccc2)C(C)C)c1=O [Compound 454],"Plant response rating, S. Flatsedge (0 to 10 scale, 0 is no effect, 10 is complete control)",[1]; [17],0
same,"S. Flatsedge plant response rating (0 to 10 scale, 0 is no effect, 10 is complete control)",[1]; [18],0
same,S. Flatsedge plant response rating,[1]; [19],0
same,S. Flatsedge plant response rating,[1]; [20],0
same,Rape plant response rating,[2]; [21],0
same,"Plant response rating, Rape","[2]; Preemergence, Rate 62 g/ha",0
same,"Plant response rating, Rape","[2]; Preemergence, Rate 125 g/ha",0
same,Rape plant response rating,[2]; [22],0
same,Rape plant response rating,[2]; [23],0
same,Rape plant response rating,[2]; [24],0
same,Rape plant response rating,[2]; [25],0
same,Crabgrass plant response rating,[3]; [21],3
same,Crabgrass plant response rating,[3]; [26],9
same,"Plant response rating, Crabgrass",[3]; [27],2
same,"Plant response rating, Crabgrass",[3]; [28],3
same,Crabgrass plant response rating,[3]; [22],8
same,Crabgrass plant response rating,[3]; [23],9
same,Crabgrass plant response rating,[3]; [24],2
same,Sugarbeets plant response rating,[4]; [21],0
same,"Plant response rating, Sugarbeets","[4]; Preemergence, Rate 62 g/ha",0
same,"Plant response rating, Sugarbeets","[4]; Preemergence, Rate 125 g/ha",0
same,Sugarbeets plant response rating,[4]; [22],0
same,Sugarbeets plant response rating,[4]; [23],0
same,Sugarbeets plant response rating,[4]; [24],0
same,Sugarbeets plant response rating,[4]; [25],0
same,Giant foxtail plant response rating,[5]; [21],8
same,Giant foxtail plant response rating,[5]; [26],9
same,"Plant response rating, Giant foxtail",[5]; [27],6
same,"Plant response rating, Giant foxtail",[5]; [28],9
same,Giant foxtail plant response rating,[5]; [22],10
same,Giant foxtail plant response rating,[5]; [23],10
same,Giant foxtail plant response rating,[5]; [24],2
same,Giant foxtail plant response rating,[5]; [25],2
same,Soybean plant response rating,[6]; [21],2
same,"Plant response rating, Soybean","[6]; Preemergence, Rate 62 g/ha",0
same,"Plant response rating, Soybean","[6]; Preemergence, Rate 125 g/ha",0
same,Soybean plant response rating,[6]; [22],0
same,Soybean plant response rating,[6]; [23],0
same,Soybean plant response rating,[6]; [24],1
same,Soybean plant response rating,[6]; [25],2
same,Wheat plant response rating,[7]; [21],0
same,"Plant response rating, Wheat","[7]; Preemergence, Rate 62 g/ha",0
same,"Plant response rating, Wheat","[7]; Preemergence, Rate 125 g/ha",0
same,Wheat plant response rating,[7]; [22],0
same,Wheat plant response rating,[7]; [23],0
same,Wheat plant response rating,[7]; [24],0
same,Wheat plant response rating,[7]; [25],0
same,Morningglory plant response rating,[8]; [21],10
same,"Plant response rating, Morningglory","[8]; Preemergence, Rate 62 g/ha",0
same,"Plant response rating, Morningglory","[8]; Preemergence, Rate 125 g/ha",0
same,Morningglory plant response rating,[8]; [22],0
same,Morningglory plant response rating,[8]; [23],0
same,Morningglory plant response rating,[8]; [24],7
same,Morningglory plant response rating,[8]; [25],9
same,Nutsedge plant response rating,[9]; [21],0
same,"Plant response rating, Nutsedge",[9]; [27],0
same,Nutsedge plant response rating,[9]; [22],0
same,Nutsedge plant response rating,[9]; [23],0
same,Nutsedge plant response rating,[9]; [24],0
same,Nutsedge plant response rating,[9]; [25],0
same,Wild oats plant response rating,[10]; [21],0
same,"Plant response rating, Wild oats","[10]; Preemergence, Rate 62 g/ha",0
same,"Plant response rating, Wild oats","[10]; Preemergence, Rate 125 g/ha",0
same,Wild oats plant response rating,[10]; [22],0
same,Wild oats plant response rating,[10]; [23],2
same,Wild oats plant response rating,[10]; [24],0
same,Wild oats plant response rating,[10]; [25],0
same,B. signalgrass plant response rating,"[11]; Postemergence, Rate 250 g/ha, scale 0 to 10, 0 no effect, 10 complete control",0
same,B. signalgrass plant response rating,[11]; [26],2
same,"Plant response rating, B. signalgrass",[11]; [27],0
same,"Plant response rating, B. signalgrass",[11]; [28],0
same,B. signalgrass plant response rating,[11]; [22],4
same,B. signalgrass plant response rating,[11]; [23],4
same,B. signalgrass plant response rating,[11]; [24],0
same,B. signalgrass plant response rating,[11]; [25],0
same,"Plant response rating, Ducksalad (0 to 10 scale, 0 is no effect, 10 is complete control)",[12]; [17],0
same,"Ducksalad plant response rating (0 to 10 scale, 0 is no effect, 10 is complete control)",[12]; [18],0
same,Ducksalad plant response rating,[12]; [19],0
same,Ducksalad plant response rating,[12]; [20],0
same,Cocklebur plant response rating,[13]; [21],0
same,Cocklebur plant response rating,[13]; [26],0
same,"Plant response rating, Cocklebur",[13]; [27],0
same,"Plant response rating, Cocklebur",[13]; [28],0
same,Cocklebur plant response rating,[13]; [22],0
same,Cocklebur plant response rating,[13]; [23],0
same,Cocklebur plant response rating,[13]; [24],0
same,Cocklebur plant response rating,[13]; [25],0
same,Corn plant response rating,[14]; [21],0
same,Corn plant response rating,[14]; [26],0
same,"Plant response rating, Corn",[14]; [27],0
same,"Plant response rating, Corn",[14]; [28],0
same,Corn plant response rating,[14]; [22],0
same,Corn plant response rating,[14]; [23],3
same,Corn plant response rating,[14]; [24],0
same,Corn plant response rating,[14]; [25],0
same,Velvetleaf plant response rating,[15]; [21],0
same,"Plant response rating, Velvetleaf","[15]; Preemergence, Rate 62 g/ha",0
same,"Plant response rating, Velvetleaf","[15]; Preemergence, Rate 125 g/ha",0
same,Velvetleaf plant response rating,[15]; [22],5
same,Velvetleaf plant response rating,[15]; [23],6
same,Velvetleaf plant response rating,[15]; [24],0
same,Velvetleaf plant response rating,[15]; [25],0
same,Blackgrass plant response rating,[16]; [21],2
same,Blackgrass plant response rating,[16]; [26],2
same,"Plant response rating, Blackgrass",[16]; [27],0
same,"Plant response rating, Blackgrass",[16]; [28],0
same,Blackgrass plant response rating,[16]; [22],2
same,Blackgrass plant response rating,[16]; [23],6
same,Blackgrass plant response rating,[16]; [24],0
same,Blackgrass plant response rating,[16]; [25],0
